In US20220153751A1, “BIFUNCTIONAL COMPOUNDS” (BioTheryX, Inc., priority 2018, published 2022):

Columns and labels:
Type in all cases: cell-based
MOLM-13 cells = experiment: MOLM-13 cell viability assay (CellTiter-Glo); settings: Homo sapiens, MOLM-13, 72 h, 3 days, read-out: MOLM-13 Cell Viability % DMSO at 1 μM
In short: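 MOLM-13 cells at 2500 cells/well were exposed to compound for 3 days at 37 °C. Viability was read by CellTiter-Glo luminescence and expressed as % of DMSO control, binned A (<50%), B (50–<70%), C (70–<90%) or D (≥90%).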

IL-1β = IL-1β inhibition assay, LPS-induced PBMCs / CD14+ monocytes (Meso Scale); settings: 1 h pretreatment, 100 ng/mL LPS 18-24 h
In short: (§1)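 Thawed human PBMCs or CD14+ mobilized peripheral blood monocytes, 200,000 cells/well in RPMI-1640/10% FBS, pretreated with compound or DMSO 1 h, then stimulated with 100 ng/mL LPS for 18-24 h. Supernatant cytokine measured by Meso Scale; % inhibition binned A–D (<50%, 50–70%, 70–90%, ≥90%), fold-change binned A–D (≤0.1, ≤0.5, ≤1, >1).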

IL-2 = IL-2 fold-change assay, anti-CD3 stimulated PBMCs (Mesoscale); settings: PBMC, PBMCs on anti-human CD3, 24 h, fold difference from the DMSO control
Description: For the IL-2 analysis, 96 well plates were precoated with 1 μg/mL anti-human CD3 antibody (OK3, eBioscience Inc., San Diego, Calif.). After washing with PBS, the indicated compound was added (50 μL/well) followed by PBMCs diluted at 3-4 million cells/mL (150 μL/well). Plates were incubated for 24 h and the supernatants collected for Mesoscale IL-2 analysis. IL-2 activity is measured as fold difference from the DMSO control.
In Table 6, the % inhibition values are reported as “A”, “B”, “C”, or “D”. “A” represents a % inhibition value of less than 50% (value <50%). “B” represents a % inhibition value of equal to or more than 50% and less than 70% (50%≤value<70%). “C” represents a % inhibition value of equal to or more than 70% and less than 90% (70%≤value<90%). “D” represents a % inhibition value of equal or more than 90% (value ≥90%). In Table 7, the fold-change values are reported as “A”, “B”, “C”, or “D”. “A” represents a fold-change value of equal to or less than 0.1 (value ≤0.1). “B” represents a fold-change value of more than 0.1 and equal to or less than 0.5 (0.1<value≤0.5). “C” represents a fold-change value of more than 0.5 and equal to or less than 1 (0.5<value≤1). “D” represents a fold-change value of more than 1 (value >1).

IKAROS = target: T1, IKAROS (Homo sapiens, UniProt Q13422+Q96SW2); experiment: IKAROS degradation assay (Western blot, MV-4-11 cells); settings: MV4-11, 6-8 h
T1 construct: endogenous in cells; host or cells: MV-4-11
In short: (§2)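 Immunoblot-based % degradation, scored A–D in 25% steps (D ≥75%). Compound exposure was 6-8 h.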

IL-6 = IL-6 inhibition assay, LPS-induced PBMCs / CD14+ monocytes (Meso Scale); settings: 1 h pretreatment, 100 ng/mL LPS 18-24 h
In short: as §1

TNF-α = TNF-α inhibition assay, LPS-induced PBMCs / CD14+ monocytes (Meso Scale); settings: 1 h pretreatment, 100 ng/mL LPS 18-24 h
In short: as §1

CDK16 = target: T2, CDK16 (Homo sapiens, UniProt Q00536); experiment: CDK16 degradation assay (Western blot, MV-4-11 cells); settings: 6-8 h; for Dmax at 0.1 µM: MV4-11, 0.1 μM; for Dmax at 1 µM: MV4-11, 1 μM
T2 construct: Whole cell extracts were prepared using RIPA buffer; endogenous in cells; host or cells: MV-4-11
In short: as §2

CDK9 = target: T3, CDK9 (Homo sapiens, UniProt P50750); experiment: CDK9 degradation assay (Western blot, MV-4-11 cells); settings: 6-8 h; for Dmax at 0.1 µM: MV4-11, 0.1 μM; for Dmax at 1 µM: MV4-11, 1 μM
T3 construct: Whole cell extracts were prepared using RIPA buffer; endogenous in cells; host or cells: MV-4-11
In short: as §2

GSPT1 = target: T4, GSPT1 (Homo sapiens, UniProt P15170+Q96SW2); experiment: GSPT1 degradation assay (Western blot, MV-4-11 cells); settings: MV4-11, 6-8 h
T4 construct: Whole cell extracts were prepared using RIPA buffer; endogenous in cells; host or cells: MV-4-11
In short: as §2

T1 sequence (Q13422 whole entry): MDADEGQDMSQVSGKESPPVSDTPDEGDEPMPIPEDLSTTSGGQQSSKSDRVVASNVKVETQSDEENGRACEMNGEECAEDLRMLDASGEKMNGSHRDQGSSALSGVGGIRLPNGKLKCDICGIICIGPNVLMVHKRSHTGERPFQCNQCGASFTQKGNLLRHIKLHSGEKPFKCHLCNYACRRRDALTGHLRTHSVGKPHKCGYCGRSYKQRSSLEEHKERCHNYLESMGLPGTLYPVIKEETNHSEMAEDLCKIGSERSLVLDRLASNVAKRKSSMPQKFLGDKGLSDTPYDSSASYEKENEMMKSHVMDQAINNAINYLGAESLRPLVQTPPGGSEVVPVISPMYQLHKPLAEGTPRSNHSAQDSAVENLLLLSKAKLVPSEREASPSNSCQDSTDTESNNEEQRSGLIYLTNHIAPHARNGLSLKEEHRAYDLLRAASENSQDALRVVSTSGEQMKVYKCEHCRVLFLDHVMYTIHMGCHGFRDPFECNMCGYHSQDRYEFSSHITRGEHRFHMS
T1 sequence (Q96SW2 whole entry): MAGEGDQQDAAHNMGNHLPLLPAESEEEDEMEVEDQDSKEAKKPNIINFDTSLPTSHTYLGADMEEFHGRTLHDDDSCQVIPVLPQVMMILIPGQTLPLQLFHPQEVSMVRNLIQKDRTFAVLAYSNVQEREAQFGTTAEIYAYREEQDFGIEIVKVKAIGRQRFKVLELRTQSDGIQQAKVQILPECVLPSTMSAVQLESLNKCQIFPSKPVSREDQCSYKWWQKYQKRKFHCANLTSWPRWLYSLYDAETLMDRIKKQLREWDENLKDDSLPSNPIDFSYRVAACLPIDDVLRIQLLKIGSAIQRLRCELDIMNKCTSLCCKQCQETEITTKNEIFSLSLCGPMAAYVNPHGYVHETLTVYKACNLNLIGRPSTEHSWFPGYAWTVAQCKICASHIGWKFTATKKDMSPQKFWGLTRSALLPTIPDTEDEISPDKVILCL
T1 sequence (Q16531 whole entry partner): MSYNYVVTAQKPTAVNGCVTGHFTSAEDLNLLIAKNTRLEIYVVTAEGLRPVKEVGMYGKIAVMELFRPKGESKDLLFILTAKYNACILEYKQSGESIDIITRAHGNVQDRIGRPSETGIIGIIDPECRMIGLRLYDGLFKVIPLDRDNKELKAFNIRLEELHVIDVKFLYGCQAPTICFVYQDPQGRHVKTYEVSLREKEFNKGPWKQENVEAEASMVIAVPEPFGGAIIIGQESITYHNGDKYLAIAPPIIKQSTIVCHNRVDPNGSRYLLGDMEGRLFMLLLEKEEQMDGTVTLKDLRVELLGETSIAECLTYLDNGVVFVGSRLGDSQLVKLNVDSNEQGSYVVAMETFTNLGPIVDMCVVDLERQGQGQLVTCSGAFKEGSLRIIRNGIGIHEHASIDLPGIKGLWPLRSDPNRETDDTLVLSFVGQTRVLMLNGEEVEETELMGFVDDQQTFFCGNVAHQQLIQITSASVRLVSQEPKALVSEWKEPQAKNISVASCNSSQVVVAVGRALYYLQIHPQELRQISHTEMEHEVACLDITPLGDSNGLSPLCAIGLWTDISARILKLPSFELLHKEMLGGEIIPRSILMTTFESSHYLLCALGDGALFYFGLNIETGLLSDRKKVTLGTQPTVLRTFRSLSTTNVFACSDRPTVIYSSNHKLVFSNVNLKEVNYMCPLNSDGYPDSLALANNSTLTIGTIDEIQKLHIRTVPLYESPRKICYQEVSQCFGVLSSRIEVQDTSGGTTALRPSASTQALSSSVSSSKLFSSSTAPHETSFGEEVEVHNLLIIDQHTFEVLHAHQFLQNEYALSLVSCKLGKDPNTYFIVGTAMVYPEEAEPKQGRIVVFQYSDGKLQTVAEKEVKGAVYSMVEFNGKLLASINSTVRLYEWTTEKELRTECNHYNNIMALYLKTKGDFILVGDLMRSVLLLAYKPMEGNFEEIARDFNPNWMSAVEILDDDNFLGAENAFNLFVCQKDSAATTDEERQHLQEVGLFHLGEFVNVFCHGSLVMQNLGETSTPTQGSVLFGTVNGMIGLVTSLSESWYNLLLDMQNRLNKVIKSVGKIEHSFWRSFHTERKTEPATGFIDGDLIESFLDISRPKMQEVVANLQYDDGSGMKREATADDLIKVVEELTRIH
T3 sequence (P50750 whole entry): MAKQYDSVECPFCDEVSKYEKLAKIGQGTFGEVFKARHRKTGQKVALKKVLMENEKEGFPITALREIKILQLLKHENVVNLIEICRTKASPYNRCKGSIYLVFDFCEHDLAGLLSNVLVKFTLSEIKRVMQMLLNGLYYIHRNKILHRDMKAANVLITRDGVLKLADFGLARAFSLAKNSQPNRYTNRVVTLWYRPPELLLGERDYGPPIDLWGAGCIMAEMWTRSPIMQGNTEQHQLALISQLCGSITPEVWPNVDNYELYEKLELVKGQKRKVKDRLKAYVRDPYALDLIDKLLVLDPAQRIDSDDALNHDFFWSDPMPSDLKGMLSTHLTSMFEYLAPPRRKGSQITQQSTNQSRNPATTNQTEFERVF
T2 sequence (Q00536 whole entry): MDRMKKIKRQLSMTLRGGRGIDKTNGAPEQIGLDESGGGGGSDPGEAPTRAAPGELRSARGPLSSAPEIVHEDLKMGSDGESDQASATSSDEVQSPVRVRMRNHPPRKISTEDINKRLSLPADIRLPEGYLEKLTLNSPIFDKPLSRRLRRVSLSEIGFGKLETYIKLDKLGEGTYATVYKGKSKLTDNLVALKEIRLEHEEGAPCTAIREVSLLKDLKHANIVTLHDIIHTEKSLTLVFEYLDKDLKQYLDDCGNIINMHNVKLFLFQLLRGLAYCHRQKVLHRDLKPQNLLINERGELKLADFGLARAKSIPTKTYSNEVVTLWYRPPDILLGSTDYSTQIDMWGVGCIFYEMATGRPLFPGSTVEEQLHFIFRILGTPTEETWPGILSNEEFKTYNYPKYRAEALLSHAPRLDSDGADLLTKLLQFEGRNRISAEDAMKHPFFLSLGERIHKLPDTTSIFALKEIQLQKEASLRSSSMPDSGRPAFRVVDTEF
T4 sequence (P15170 whole entry): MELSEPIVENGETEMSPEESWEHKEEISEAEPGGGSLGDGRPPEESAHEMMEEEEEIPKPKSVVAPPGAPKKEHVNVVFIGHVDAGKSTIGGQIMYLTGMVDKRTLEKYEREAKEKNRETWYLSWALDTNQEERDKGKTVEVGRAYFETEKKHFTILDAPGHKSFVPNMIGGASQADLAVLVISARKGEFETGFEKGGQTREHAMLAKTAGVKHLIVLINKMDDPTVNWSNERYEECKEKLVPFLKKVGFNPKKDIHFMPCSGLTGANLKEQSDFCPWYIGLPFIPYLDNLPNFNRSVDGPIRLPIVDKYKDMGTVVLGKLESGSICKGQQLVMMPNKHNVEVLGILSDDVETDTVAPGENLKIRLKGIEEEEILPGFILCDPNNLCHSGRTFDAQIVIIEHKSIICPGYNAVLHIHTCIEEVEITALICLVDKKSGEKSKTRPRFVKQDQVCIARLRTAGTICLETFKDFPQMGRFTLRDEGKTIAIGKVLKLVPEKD
T4 sequence (Q96SW2 whole entry): as the sequence (Q96SW2 whole entry) above
T4 sequence (Q16531 whole entry partner): as the sequence (Q16531 whole entry partner) above

Row | Structure (SMILES) | viability at 1 µM (MOLM-13 cells) | inhibition at 1 µM (IL-1β) | fold induction at 1 µM (IL-2) | Dmax at 1 µM (IKAROS) | inhibition at 1 µM (IL-6) | inhibition at 1 µM (TNF-α) | Dmax at 0.1 µM (CDK16) | Dmax at 1 µM (CDK16) | Dmax at 0.1 µM (CDK9) | Dmax at 1 µM (CDK9) | Dmax at 1 µM (GSPT1)
1 | CC(C)(C)c1cnc(CSc2cnc(NC(=O)C3CCN(CC(=O)NCCOCCNC(=O)NCc4scc5c4CN(C4CCC(=O)NC4=O)C5=O)CC3)s2)o1 (stereo not drawn) [Compound 2, 3-{6-Oxo-2-[(3-{2-[2-(2-{4-[(5-{[5-(tert-butyl)-1,3-oxazol-2-yl]methylthio}-1,3-thiazol-2-ylamino)carbonyl]-1-piperidyl}acetylamino)ethoxy]ethyl}ureido)methyl]-3-thia-7-azabicyclo[3.3.0]octa-1,4-dien-7-yl}-2,6-piperidinedione] | > 90% | > 90% | 0.1 to 0.5 | 25 to 50% | > 90% | 70 to 90% |  |  |  |  | 
2 | CC(C)(C)c1cnc(CSc2cnc(NC(=O)C3CCN(CC(=O)NCCOCCOCCNC(=O)NCc4cc5c(s4)C(=O)N(C4CCC(=O)NC4=O)C5)CC3)s2)o1 (stereo not drawn) [Compound 13, N-(5-(((5-(tert-butyl)oxazol-2-yl)methyl)thio)thiazol-2-yl)-1-(1-(5-(2,6-dioxopiperidin-3-yl)-6-oxo-5,6-dihydro-4H-thieno[2,3-c]pyrrol-2-yl)-3,14-dioxo-7,10-dioxa-2,4,13-triazapentadecan-15-yl)piperidine-4-carboxamide] | > 90% | > 90% | ≤ 0.1 |  | > 90% | > 90% | < 25% | < 25% | 50 to 75% | ≥ 75% | 
3 | Cn1ncc(-c2nc(N[C@H]3CC[C@H](NCCCCCCNC(=O)NCc4cc5c(s4)C(=O)N(C4CCC(=O)NC4=O)C5)CC3)ncc2F)c1CC1CC1 (stereo partly drawn) [Compound 21, 1-(6-(((1r,4r)-4-((4-(5-(cyclopropylmethyl)-1-methyl-1H-pyrazol-4-yl)-5-fluoropyrimidin-2-yl)amino)cyclohexyl)amino)hexyl)-3-((5-(2,6-dioxopiperidin-3-yl)-6-oxo-5,6-dihydro-4H-thieno[2,3-c]pyrrol-2-yl)methyl)urea] | > 90% | < 50% | 0.1 to 0.5 | ≥ 75% | < 50% | < 50% |  |  |  |  | 
4 | CC(C)(C)c1cnc(CSc2cnc(NC(=O)C3CCN(CC(=O)NCCOCCOCCNCC(=O)NCc4scc5c4CN(C4CCC(=O)NC4=O)C5=O)CC3)s2)o1 (stereo not drawn) [Compound 26, N-(5-(((5-(tert-butyl)oxazol-2-yl)methyl)thio)thiazol-2-yl)-1-(1-(5-(2,6-dioxopiperidin-3-yl)-4-oxo-5,6-dihydro-4H-thieno[3,4-c]pyrrol-1-yl)-3,15-dioxo-8,11-dioxa-2,5,14-triazahexadecan-16-yl)piperidine-4-carboxamide] | > 90% | > 90% | ≤ 0.1 | 50 to 75% | > 90% | 70 to 90% | 25 to 50% | < 25% | 50 to 75% | ≥ 75% | 
5 | Cn1ncc(-c2nc(N[C@H]3CC[C@H](NCC(=O)NCCOCCOCC(=O)NCc4ccc(COc5cccc6c5CN(C5CCC(=O)NC5=O)C6=O)cc4)CC3)ncc2Cl)c1CC1CC1 (stereo partly drawn) [Compound 28, 2-(((1r,4r)-4-((5-chloro-4-(5-(cyclopropylmethyl)-1-methyl-1H-pyrazol-4-yl)pyrimidin-2-yl)amino)cyclohexyl)amino)-N-(2-(2-(2-((4-(((2-(2,6-dioxopiperidin-3-yl)-1-oxoisoindolin-4-yl)oxy)methyl)benzyl)amino)-2-oxoethoxy)ethoxy)ethyl)acetamide] | > 90% | > 90% | ≤ 0.1 | 50 to 75% | > 90% | > 90% |  |  |  |  | < 25%
6 | CC(C)(C)c1cnc(CSc2cnc(NC(=O)C3CCN(CC(=O)NCCOCCOCCOCCNCC(=O)NCc4cc5c(s4)C(=O)N(C4CCC(=O)NC4=O)C5)CC3)s2)o1 (stereo not drawn) [Compound 42, N-(5-(((5-(tert-butyl)oxazol-2-yl)methyl)thio)thiazol-2-yl)-1-(1-(5-(2,6-dioxopiperidin-3-yl)-6-oxo-5,6-dihydro-4H-thieno[2,3-c]pyrrol-2-yl)-3,18-dioxo-8,11,14-trioxa-2,5,17-triazanonadecan-19-yl)piperidine-4-carboxamide] | 70 to 90% | > 90% | 0.1 to 0.5 | 25 to 50% | > 90% | < 50% | < 25% | < 25% | 25 to 50% | ≥ 75% | 
7 | CC(C)(C)c1cnc(CSc2cnc(NC(=O)C3CCN(CCCCCCCNCC(=O)NCc4cc5c(s4)C(=O)N(C4CCC(=O)NC4=O)C5)CC3)s2)o1 (stereo not drawn) [Compound 57, N-(5-(((5-(tert-butyl)oxazol-2-yl)methyl)thio)thiazol-2-yl)-1-(7-((2-(((5-(2,6-dioxopiperidin-3-yl)-6-oxo-5,6-dihydro-4H-thieno[2,3-c]pyrrol-2-yl)methyl)amino)-2-oxoethyl)amino)heptyl)piperidine-4-carboxamide] | > 90% | > 90% | ≤ 0.1 | 25 to 50% | > 90% | > 90% |  |  |  |  | 
8 | Cn1ncc(-c2cc(N[C@H]3CC[C@H](NCCCCCCCCNC(=O)NCc4cc5c(s4)C(=O)N(C4CCC(=O)NC4=O)C5)CC3)ncc2F)c1CC1CC1 (stereo partly drawn) [Compound 59, 1-(8-(((1r,4r)-4-((4-(5-(cyclopropylmethyl)-1-methyl-1H-pyrazol-4-yl)-5-fluoropyridin-2-yl)amino)cyclohexyl)amino)octyl)-3-((5-(2,6-dioxopiperidin-3-yl)-6-oxo-5,6-dihydro-4H-thieno[2,3-c]pyrrol-2-yl)methyl)urea] | > 90% | 70 to 90% | 0.5 to 1 |  | 70 to 90% | < 50% |  |  |  |  | 
9 | Cc1nc2c(CNC(=O)NCCCCCCCCN[C@H]3CC[C@H](Nc4ncc(Cl)c(-c5cnn(C)c5CC5CC5)n4)CC3)scc2c(=O)n1C1CCC(=O)NC1=O (stereo partly drawn) [Compound 61, 1-(8-(((1r,4r)-4-((5-chloro-4-(5-(cyclopropylmethyl)-1-methyl-1H-pyrazol-4-yl)pyrimidin-2-yl)amino)cyclohexyl)amino)octyl)-3-((3-(2,6-dioxopiperidin-3-yl)-2-methyl-4-oxo-3,4-dihydrothieno[3,4-d]pyrimidin-7-yl)methyl)urea] | > 90% | > 90% | 0.1 to 0.5 | 25 to 50% | > 90% | > 90% |  |  |  |  | 
10 | Cn1ncc(-c2cc(N[C@H]3CC[C@H](NCC(=O)NCCNCC(=O)NCc4cc5c(s4)C(=O)N(C4CCC(=O)NC4=O)C5)CC3)ncc2F)c1CC1CC1 (stereo partly drawn) [Compound 63, 2-(((1r,4r)-4-((4-(5-(cyclopropylmethyl)-1-methyl-1H-pyrazol-4-yl)-5-fluoropyridin-2-yl)amino)cyclohexyl)amino)-N-(2-((2-(((5-(2,6-dioxopiperidin-3-yl)-6-oxo-5,6-dihydro-4H-thieno[2,3-c]pyrrol-2-yl)methyl)amino)-2-oxoethyl)amino)ethyl)acetamide] | > 90% |  | > 1 | 25 to 50% |  |  |  |  |  |  | < 25%
